SMILES strings stand for the structures. pIC50: −log10 of the molar value.

The target in test [1] is T1, human CB1 receptor (Homo sapiens, UniProt P21554).
T1 construct: expressed in transfected cells; host or cells: HEK293
In words: bioSensAll GAPL-Gi2 BRET biosensor assay in HEK293 cells transfected with hCB1; test compound added before EC75-80 of agonist CP55,940 (0.1 nM). To be noted: vs CP55,940 0.1 nM (EC75-80), read-out: CB1 wt Gi2 IC50. The class given is cell-based. As to the method: (§1) Using polyethylenimine (PEI) transfection agent, HEK293 cells were transfected in suspension with the human CB1 receptor and one of the following bioSensAll® assays: GAPL-Gi2, or β-arrestin plasma membrane (PM) translocation biosensor (+GRK2). Cells were directly seeded in 96-well plates immediately following transfection.
(§2) Cells were incubated with coelenterazine (luciferase substrate) and different test compounds prior to the measurement of BRET signals.
(§3) Used in this project are i) Gα plasma membrane (GAPL) biosensors and the ii) β-arrestin plasma membrane translocation biosensor.
i) GAPL sensors are used to monitor the activation of heterotrimeric G proteins at the plasma membrane upon receptor stimulation. Specifically, these multimolecular BRET sensors detect the plasma membrane recruitment of proteins that interact with active Gα subunits in a G protein family-selective manner. G protein activation following receptor stimulation generally leads to an increase in the BRET signal.
(§4) HEK293 cells were maintained in Dulbecco's Modified Eagle Medium (DMEM) (Wisent; cat #319-030-CL: without sodium pyruvate, with 4.5 g/L glucose, without L-glutamine) supplemented with 1% penicillin-streptomycin (Wisent; cat #450-201-EL) and 2 or 10% fetal bovine serum (Wisent cat #090150).
(§5) HEK293 cells were co-transfected with hCB1 and one of the above-listed bioSensAll® assays. For each transfection condition: • the total amount of transfected DNA was kept constant at 1 μg per mL of cell culture to be transfected; whenever necessary, salmon sperm DNA (Invitrogen, cat #15632011) was used as ‘carrier’ DNA to supplement plasmid DNA (i.e., biosensor and receptor); • the PEI (polyethylenimine 25 kDa linear, PolyScience, cat #23966) to DNA ratio (ug:ug) was fixed at 3:1.
(§6) Transfections were carried out as follows: • DNA and PEI were first diluted separately in 150 mM NaCl. The volume of the diluent in each tube corresponds to 5% of the cell culture volume to be transfected. • Once DNA and PEI were diluted, the PEI-containing solution was added to the DNA solution and the DNA/PEI mixture immediately vortexed for 5 seconds. • The DNA/PEI mixture was incubated for at least 20 minutes at room temperature to allow for the formation of DNA/PEI complexes. • During the incubation, HEK293 cells were detached, counted and re-suspended in culture medium (composition specified above). • At the end of the incubation period, the DNA/PEI mixture was added to the cells. • Cells were finally distributed in 96-well plates (White Opaque 96-well/Microplates, Greiner, cat #655083 or CulturPlate-96, White Opaque 96-well Microplate, PerkinElmer, cat #6005688) at a density of 30,000 cells per well.
(§7) At 48 hours post-transfection: • Using 450-Select TS Biotek plate washer, culture medium was aspirated and replaced with 100 μL of Hank's Balanced Salt Solution buffer (HBSS) (Wisent, cat #319-067CL: without red phenol; with sodium bicarbonate, with calcium and magnesium, with HEPES) per well. • Plates were then incubated (equilibrated) at 37° C., 5% CO2 for 60 minutes. • Increasing doses of test compounds were then added to each well using the HP D300e digital dispenser (Tecan). All compounds were assayed at the following 12 concentrations (in nM) with each biosensor: 0.000, 0.013, 0.040, 0.120, 0.320, 0.960, 2.80, 8.00, 24.0, 70.0, 205 and 600. • Three to 5 minutes later, an assay-specific effective concentration (EC)75-80 of agonist CP55,940 (i.e., 0.1 nM and 100 nM for G[…]i2-GAPL or […]Arrestin2 (+GRK2) assay, respectively) was added to wells previously injected with test compound (i.e., previous step 3). […]
In general terms: BRET reads energy transfer from a luciferase to a nearby fluorophore.

Test [2] addresses T1, human CB1 receptor. The test is described as follows: bioSensAll β-arrestin2 plasma membrane translocation (+GRK2) BRET biosensor assay in HEK293 cells transfected with hCB1; test compound added before EC75-80 of agonist CP55,940 (100 nM). The class given is cell-based. As to conditions: βArrestin2 (+GRK2) BRET biosensor, vs CP55,940 100 nM (EC75-80), read-out: CB1 wt βarr2 IC50. As to the method:
as §1, §2, §3
ii) The multimolecular β-arrestin membrane recruitment biosensors allow for real-time spatio-temporal monitoring of β-arrestin 1 and β-arrestin 2 following GPCR activation. Specifically, these β-arrestin sensors were designed to detect the recruitment of proteins to the plasma membrane (β-arrestin PM) with localization to compartment resulting in an increased BRET signal.
as §4, §5, §6, §7

T1 sequence (P21554 whole entry): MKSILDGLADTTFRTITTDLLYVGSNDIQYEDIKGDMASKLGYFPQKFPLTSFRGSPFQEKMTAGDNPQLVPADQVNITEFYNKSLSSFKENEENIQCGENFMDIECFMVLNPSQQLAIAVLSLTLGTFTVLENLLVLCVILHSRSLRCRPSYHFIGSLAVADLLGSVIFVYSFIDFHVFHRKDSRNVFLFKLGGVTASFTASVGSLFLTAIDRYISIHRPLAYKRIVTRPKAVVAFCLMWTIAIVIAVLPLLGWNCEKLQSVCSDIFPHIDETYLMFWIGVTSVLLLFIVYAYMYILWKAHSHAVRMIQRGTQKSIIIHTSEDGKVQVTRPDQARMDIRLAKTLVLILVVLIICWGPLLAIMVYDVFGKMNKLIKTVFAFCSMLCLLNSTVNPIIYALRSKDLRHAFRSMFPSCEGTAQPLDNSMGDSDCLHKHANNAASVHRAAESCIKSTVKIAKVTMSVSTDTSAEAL

The term pIC50 denotes the negative decadic logarithm of the IC50, by convention in mol/L. With `CC(C)(O)COc1nc(N2CCC(C)(C(N)=O)CC2)c2nc(-c3ccccc3Cl)n(-c3ccc(Cl)cc3)c2n1` [Compound 9, 1-[8-(2-chlorophenyl)-9-(4-chlorophenyl)-2-(2-hydroxy-2-methyl-propoxy)purin-6-yl]-4-methyl-piperidine-4-carboxamide], the negative logarithm of the IC50 (pIC50) at human CB1 receptor [1] is 9.40; on human CB1 receptor [2], 8.53.
On to `COCCOc1nc(N2CCC(C)(C(N)=O)CC2)c2nc(-c3ccccc3Cl)n(-c3ccc(Cl)cc3)c2n1` [Compound 10, 1-[8-(2-chlorophenyl)-9-(4-chlorophenyl)-2-(2-methoxyethoxy)purin-6-yl]-4-methyl-piperidine-4-carboxamide], for which the negative-log IC50 (pIC50) was 8.83 on human CB1 receptor [1] and 8.17 on human CB1 receptor [2].
In the case of `CC1(C(N)=O)CCN(c2nc(NCCS(C)(=O)=O)nc3c2nc(-c2ccccc2Cl)n3-c2ccc(Cl)cc2)CC1` [Compound 11, 1-[8-(2-chlorophenyl)-9-(4-chlorophenyl)-2-(2-methylsulfonylethylamino)purin-6-yl]-4-methyl-piperidine-4-carboxamide], the negative-log IC50 (pIC50) on human CB1 receptor [1] was 8.70; on human CB1 receptor [2] it was 7.52.
As to `CC1(C(N)=O)CCN(c2nc(N(CCO)Cc3ccccc3)nc3c2nc(-c2ccccc2Cl)n3-c2ccc(Cl)cc2)CC1` [Compound 12, 1-[2-[benzyl(2-hydroxyethyl)amino]-8-(2-chlorophenyl)-9-(4-chlorophenyl)purin-6-yl]-4-methyl-piperidine-4-carboxamide], the pIC50 is 9.30 on human CB1 receptor [1] and 8.51 at human CB1 receptor [2].
For `CC1(C(N)=O)CCN(c2nc(N3CCC[C@@H]3CO)nc3c2nc(-c2ccccc2Cl)n3-c2ccc(Cl)cc2)CC1` [Compound 13, 1-[8-(2-chlorophenyl)-9-(4-chlorophenyl)-2-[(2R)-2-(hydroxymethyl)pyrrolidin-1-yl]purin-6-yl]-4-methyl-piperidine-4-carboxamide], the negative-log IC50 (pIC50) on human CB1 receptor [1] is 8.15; on human CB1 receptor [2], under 5.30.
The matching figures for `CC1(C(N)=O)CCN(c2nc(N3C[C@H]4CCC[C@H]4C3)nc3c2nc(-c2ccccc2Cl)n3-c2ccc(Cl)cc2)CC1` [Compound 14, 1-[2-[(3aS,6aR)-3,3a,4,5,6,6a-hexahydro-1H-cyclopenta[c]pyrrol-2-yl]-8-(2-chlorophenyl)-9-(4-chlorophenyl)purin-6-yl]-4-methyl-piperidine-4-carboxamide]: 8.19 and 7.46.
The matching figures for `CC1(C(N)=O)CCN(c2nc(N3C[C@H]4C[C@H]4C3)nc3c2nc(-c2ccccc2Cl)n3-c2ccc(Cl)cc2)CC1` [Compound 15, 1-[2-[(1R,5S)-3-azabicyclo[3.1.0]hexan-3-yl]-8-(2-chlorophenyl)-9-(4-chlorophenyl)purin-6-yl]-4-methyl-piperidine-4-carboxamide]: 8.89 and 8.10.
For the compound `CC1(C(N)=O)CCN(c2nc(N3CCS(=O)(=O)CC3)nc3c2nc(-c2ccccc2Cl)n3-c2ccc(Cl)cc2)CC1` [Compound 16, 1-[8-(2-chlorophenyl)-9-(4-chlorophenyl)-2-(1,1-dioxo-1,4-thiazinan-4-yl)purin-6-yl]-4-methyl-piperidine-4-carboxamide], the figures for the pIC50 at human CB1 receptor [1] and at human CB1 receptor [2] were 9.50 and 8.82, respectively.
For `CC1(C(N)=O)CCN(c2nc(OC3CCCOC3)nc3c2nc(-c2ccccc2Cl)n3-c2ccc(Cl)cc2)CC1` (stereo not drawn) [Compound 17, 1-[8-(2-chlorophenyl)-9-(4-chlorophenyl)-2-tetrahydropyran-3-yloxy-purin-6-yl]-4-methyl-piperidine-4-carboxamide] the same measures were 9.21 and 8.62.
With `CC(=O)NC(=N)Nc1nc(N2CCC(C)(C(N)=O)CC2)c2nc(-c3ccccc3Cl)n(-c3ccc(Cl)cc3)c2n1` [Compound 18, 1-[2-[(N-acetylcarbamimidoyl)amino]-8-(2-chlorophenyl)-9-(4-chlorophenyl)purin-6-yl]-4-methyl-piperidine-4-carboxamide], the pIC50 was 8.43 on human CB1 receptor [1] and 7.95 on human CB1 receptor [2].
For `CN(CCO)c1nc(N2CCC(C)(C(N)=O)CC2)c2nc(-c3ccccc3Cl)n(-c3ccc(Cl)cc3)c2n1` [Compound 19, 1-[8-(2-chlorophenyl)-9-(4-chlorophenyl)-2-[2-hydroxyethyl(methyl)amino]purin-6-yl]-4-methyl-piperidine-4-carboxamide] the same measures were 9.73 and 8.97.
As for `CC1(C(N)=O)CCN(c2nc(N3CCC[C@H]3CO)nc3c2nc(-c2ccccc2Cl)n3-c2ccc(Cl)cc2)CC1` [Compound 20, 1-[8-(2-chlorophenyl)-9-(4-chlorophenyl)-2-[(2S)-2-(hydroxymethyl)pyrrolidin-1-yl]purin-6-yl]-4-methyl-piperidine-4-carboxamide], the pIC50 on human CB1 receptor [1] is 9.59; on human CB1 receptor [2], 9.25.
The matching figures for `Cc1cnn(-c2nc(N3CCC(C(F)(F)F)CC3)c3nc(-c4ccccc4Cl)n(-c4ccc(Cl)cc4)c3n2)c1` [Compound 21, 8-(2-chlorophenyl)-9-(4-chlorophenyl)-2-(4-methylpyrazol-1-yl)-6-[4-(trifluoromethyl)-1-piperidyl]purine]: 8.36 and 7.54.
The matching figures for `Cc1ccn(-c2nc(N3CCC(C(F)(F)F)CC3)c3nc(-c4ccccc4Cl)n(-c4ccc(Cl)cc4)c3n2)n1` [Compound 22, 8-(2-chlorophenyl)-9-(4-chlorophenyl)-2-(3-methylpyrazol-1-yl)-6-[4-(trifluoromethyl)-1-piperidyl]purine]: 8.88 and 7.95.
For `OCCCOc1nc(N2CCC(C(F)(F)F)CC2)c2nc(-c3ccccc3Cl)n(-c3ccc(Cl)cc3)c2n1` [Compound 23, 3-[8-(2-chlorophenyl)-9-(4-chlorophenyl)-6-[4-(trifluoromethyl)-1-piperidyl]purin-2-yl]oxypropan-1-ol], the pIC50 at human CB1 receptor [1] is 9.07; at human CB1 receptor [2] it was 8.36.
Consider `COCCOc1nc(N2CCC(C(F)(F)F)CC2)c2nc(-c3ccccc3Cl)n(-c3ccc(Cl)cc3)c2n1` [Compound 27, 8-(2-chlorophenyl)-9-(4-chlorophenyl)-2-(2-methoxyethoxy)-6-[4-(trifluoromethyl)-1-piperidyl]purine], for which the pIC50 is 8.82 on human CB1 receptor [1] and 7.99 at human CB1 receptor [2].
For `CS(=O)(=O)CCNc1nc(N2CCC(C(F)(F)F)CC2)c2nc(-c3ccccc3Cl)n(-c3ccc(Cl)cc3)c2n1` [Compound 28, 8-(2-chlorophenyl)-9-(4-chlorophenyl)-N-(2-methylsulfonylethyl)-6-[4-(trifluoromethyl)-1-piperidyl]purin-2-amine], the negative-log IC50 (pIC50) on human CB1 receptor [1] was 8.99; on human CB1 receptor [2], 7.91.
As to `OC[C@H]1CCCN1c1nc(N2CCC(C(F)(F)F)CC2)c2nc(-c3ccccc3Cl)n(-c3ccc(Cl)cc3)c2n1` [Compound 29, [(2R)-1-[8-(2-chlorophenyl)-9-(4-chlorophenyl)-6-[4-(trifluoromethyl)-1-piperidyl]purin-2-yl]pyrrolidin-2-yl]methanol], the results for the pIC50 on human CB1 receptor [1] and on human CB1 receptor [2] were 8.16 and under 5.30, respectively.
